In test [1] the target is Acetylcholinesterase (Homo sapiens, UniProt P22303).
Description: Inhibition of human AChE by Ellman's assay
The next test concerns the target Cholinesterase (Equus caballus, UniProt P81908).
Test [2] has as its target Acetylcholinesterase (Electrophorus electricus, UniProt O42275).

The values below come from ChEMBL document CHEMBL1158060, “Taspine: bioactivity-guided isolation and molecular ligand-target insight of a potent acetylcholinesterase inhibitor from Magnolia x soulangiana” (J Nat Prod, 2006).

Chain of Cholinesterase (P81908 whole entry): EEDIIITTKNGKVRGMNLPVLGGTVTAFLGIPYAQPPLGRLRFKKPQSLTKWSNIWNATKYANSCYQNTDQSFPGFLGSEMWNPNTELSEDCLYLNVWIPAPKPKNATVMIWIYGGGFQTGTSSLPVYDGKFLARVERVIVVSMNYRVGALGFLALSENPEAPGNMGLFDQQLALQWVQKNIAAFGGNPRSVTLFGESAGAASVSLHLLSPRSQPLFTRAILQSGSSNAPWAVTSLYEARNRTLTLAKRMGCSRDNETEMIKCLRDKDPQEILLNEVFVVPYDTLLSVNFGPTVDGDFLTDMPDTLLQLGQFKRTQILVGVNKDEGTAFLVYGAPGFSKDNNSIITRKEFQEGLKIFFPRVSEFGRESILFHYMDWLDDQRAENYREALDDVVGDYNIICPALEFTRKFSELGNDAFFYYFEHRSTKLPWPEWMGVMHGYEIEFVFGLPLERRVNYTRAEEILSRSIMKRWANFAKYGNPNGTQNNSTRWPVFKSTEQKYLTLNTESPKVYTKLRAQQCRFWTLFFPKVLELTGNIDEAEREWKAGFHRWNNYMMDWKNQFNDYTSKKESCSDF
Chain of Acetylcholinesterase (Electrophorus electricus, UniProt O42275) (O42275 whole entry): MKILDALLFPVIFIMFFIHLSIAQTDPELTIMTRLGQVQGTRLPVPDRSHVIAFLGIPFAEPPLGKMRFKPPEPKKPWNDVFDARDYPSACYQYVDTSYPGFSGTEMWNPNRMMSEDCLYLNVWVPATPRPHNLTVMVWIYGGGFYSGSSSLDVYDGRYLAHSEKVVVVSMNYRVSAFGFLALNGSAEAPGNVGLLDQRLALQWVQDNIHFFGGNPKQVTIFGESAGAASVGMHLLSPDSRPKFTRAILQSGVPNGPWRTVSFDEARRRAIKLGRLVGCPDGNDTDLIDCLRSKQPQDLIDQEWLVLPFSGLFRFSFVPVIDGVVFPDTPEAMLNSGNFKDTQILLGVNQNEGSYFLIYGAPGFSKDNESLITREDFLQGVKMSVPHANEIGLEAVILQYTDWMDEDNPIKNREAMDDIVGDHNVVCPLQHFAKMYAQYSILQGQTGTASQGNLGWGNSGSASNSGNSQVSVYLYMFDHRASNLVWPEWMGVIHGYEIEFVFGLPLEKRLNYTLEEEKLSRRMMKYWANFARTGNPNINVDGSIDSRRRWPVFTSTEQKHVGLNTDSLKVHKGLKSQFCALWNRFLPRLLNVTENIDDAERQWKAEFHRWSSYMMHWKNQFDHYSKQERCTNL
Chain of Acetylcholinesterase (Homo sapiens, UniProt P22303) (P22303 whole entry): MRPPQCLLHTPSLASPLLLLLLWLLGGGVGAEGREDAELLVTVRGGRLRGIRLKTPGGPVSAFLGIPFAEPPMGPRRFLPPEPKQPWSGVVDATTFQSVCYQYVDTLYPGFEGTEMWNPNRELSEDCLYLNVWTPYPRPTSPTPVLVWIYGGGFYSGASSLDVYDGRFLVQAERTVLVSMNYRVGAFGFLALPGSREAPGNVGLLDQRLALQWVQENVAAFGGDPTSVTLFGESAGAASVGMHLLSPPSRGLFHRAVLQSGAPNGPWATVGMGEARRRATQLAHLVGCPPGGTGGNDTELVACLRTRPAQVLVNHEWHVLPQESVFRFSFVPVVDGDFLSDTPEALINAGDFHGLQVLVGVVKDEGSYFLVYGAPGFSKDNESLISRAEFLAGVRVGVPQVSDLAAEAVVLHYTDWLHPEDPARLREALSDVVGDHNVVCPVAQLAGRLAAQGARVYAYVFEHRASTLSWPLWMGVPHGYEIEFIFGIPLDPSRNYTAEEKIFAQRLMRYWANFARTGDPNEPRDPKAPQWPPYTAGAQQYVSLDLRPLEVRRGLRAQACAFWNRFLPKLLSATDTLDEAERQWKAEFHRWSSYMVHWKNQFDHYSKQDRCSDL

Take `COc1c(O)cc2c3c1-c1ccccc1C[C@H]3NCC2` [(-)-ASIMILOBINE]: the IC50 against Acetylcholinesterase [1], against Cholinesterase and against Acetylcholinesterase [2] was > 100 µM throughout.
`COc1ccc2c(=O)oc3c(OC)cc(CCN(C)C)c4c(=O)oc1c2c34` [TASPINE]: the IC50 was 0.54 µM against Acetylcholinesterase [1], > 100 µM at Cholinesterase and 0.33 µM against Acetylcholinesterase [2].
